Three compounds from patent publication US20220305115A1 (JANSSEN SCIENCES IRELAND UNLIMITED COMPANY, priority 2019, published 2022) can be followed below.

Common to all, as to assay type: cell-based
The test system of experiment [1] is IL12p40. The experiment in a line: PBMC cytokine profiling assay, IL12-p40 induction. The conditions noted are these: Homo sapiens, 24 h, human PBMCs, 24 hours incubation. The method, then: (§1) Compounds were dissolved and stored in DMSO (Sigma-Aldrich, St. Louis, Mo.) at 10 mM concentration.
(§2) Cryopreserved human PBMCs isolated from healthy donors were purchased from StemCell Technologies (Vancouver, Canada). Cell culture medium used was RPMI with L-Glutamine (Mediatech, Manassas, Va.) supplemented with 10% fetal bovine serum (Hyclone, GE Healthcare, Logan, Utah) and Penicillin-Streptomycin (Mediatech). Human TNFα, IL12p40, and IFNα2a 384-well Assay capture plates, standards, buffers and processing reagents were obtained from MesoScale Discovery Technologies (MSD; Rockville, Md.).
(§3) Cryopreserved human PBMCs (1×10e8 cells/ml) were thawed at 37° C. and resuspended in 25 mL warm cell culture medium. The cells were pelleted at 200×g (Beckman Avanti J-E) for 5 min and resuspended in 20 mL of fresh culture media. Cells were counted using a Cellometer (Nexcelcom Bioscience), adjusted to 2×10e6 cells, and incubated for 2 hours in an incubator set at 37° C., 5% CO2 to recover from cryopreservation. […]
(§4) Using a Biomek FX 384 well pipetting station (Beckman), conditioned culture medium (CCM) from the assay plate was transferred to MSD capture plates customized for each cytokine. […] MSD Read Buffer diluted to 2× in deionized water and 35 μL/well was added via Biomek FX instrument. The plates were read immediately in a MSD6000 reader. […]

In experiment [2] the test system is TNFα. Nature of the experiment: PBMC cytokine profiling assay, TNFα induction. The conditions noted are these: Homo sapiens, 24 h, human PBMCs, 24 hours incubation. On the procedure: as §1, §2, §3, §4
The test system of experiment [3] is IFNα. The experiment in a line: PBMC cytokine profiling assay, IFNα induction. The conditions noted are these: Homo sapiens, 24 h, human PBMCs, 24 hours incubation. On the procedure: as §1, §2, §3, §4
The target of experiment [4] is T1, human TLR8 (Homo sapiens, UniProt Q9NR97).
T1 construct: host or cells: HEK-Blue human TLR8 cells (HEK293-derived reporter line)
T1 sequence (Q9NR97 27-1041): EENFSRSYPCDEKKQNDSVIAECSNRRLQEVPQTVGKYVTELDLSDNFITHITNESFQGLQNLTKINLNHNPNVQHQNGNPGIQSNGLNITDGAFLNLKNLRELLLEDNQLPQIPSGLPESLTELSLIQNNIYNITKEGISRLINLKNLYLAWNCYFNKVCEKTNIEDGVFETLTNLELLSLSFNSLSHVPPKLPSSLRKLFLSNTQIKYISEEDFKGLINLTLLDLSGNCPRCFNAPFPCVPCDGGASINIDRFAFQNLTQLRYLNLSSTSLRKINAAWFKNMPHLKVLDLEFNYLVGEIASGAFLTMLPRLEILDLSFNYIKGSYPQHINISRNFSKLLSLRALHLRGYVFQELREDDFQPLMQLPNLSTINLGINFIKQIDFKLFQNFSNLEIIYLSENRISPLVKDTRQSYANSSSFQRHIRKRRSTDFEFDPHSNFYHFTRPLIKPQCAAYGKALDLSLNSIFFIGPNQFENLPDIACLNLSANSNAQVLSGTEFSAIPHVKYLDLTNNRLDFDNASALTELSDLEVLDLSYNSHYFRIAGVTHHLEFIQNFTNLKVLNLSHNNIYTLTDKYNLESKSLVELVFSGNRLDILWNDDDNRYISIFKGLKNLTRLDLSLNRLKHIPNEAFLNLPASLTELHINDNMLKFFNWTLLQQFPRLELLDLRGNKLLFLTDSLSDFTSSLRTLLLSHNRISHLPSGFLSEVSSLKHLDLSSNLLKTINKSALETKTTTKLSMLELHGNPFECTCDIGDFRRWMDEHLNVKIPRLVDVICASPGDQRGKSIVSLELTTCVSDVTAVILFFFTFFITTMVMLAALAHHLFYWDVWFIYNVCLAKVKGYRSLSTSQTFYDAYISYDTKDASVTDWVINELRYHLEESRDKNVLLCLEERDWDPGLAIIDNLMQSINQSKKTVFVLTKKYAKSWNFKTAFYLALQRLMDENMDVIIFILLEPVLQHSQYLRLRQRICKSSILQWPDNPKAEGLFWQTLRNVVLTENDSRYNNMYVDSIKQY
Nature of the experiment: HEK-Blue human TLR8 cell SEAP reporter assay (NF-κB activation). The conditions noted are these: HEK-Blue human TLR8 cells, stimulation for 20 hours, Quanti Blue read at 640 nm. The source says:
(§5) For TLR8 and TLR7 activity testing, HEK-Blue human TLR8 or TLR7 cells (Invivogen, San Diego, Calif., USA) are used, respectively. These cells are designed for studying the stimulation of human TLR8 or TLR7 by monitoring the activation of NF-κB. A SEAP (secreted embryonic alkaline phosphatase) reporter gene is placed under the control of the IFN-b minimal promoter fused to five NF-κB and AP-1-binding sites. Therefore the reporter expression is regulated by the NF-κB promoter upon stimulation of human TLR8 or TLR7 for 20 hours. The cell culture supernatant SEAP reporter activity was determined using Quanti Blue kit (Invivogen, San Diego, Ca, USA) at a wavelength of 640 nm, a detection medium that turns purple/blue in the presence of alkaline phosphatase. EC50 values were determined using Activity Base analysis (ID Business Solution, Limited).

For experiment [5], the target named is T2, human TLR7 (Homo sapiens, UniProt Q9NYK1).
T2 construct: host or cells: HEK-Blue human TLR7 cells (HEK293-derived reporter line)
T2 sequence (Q9NYK1 27-1049): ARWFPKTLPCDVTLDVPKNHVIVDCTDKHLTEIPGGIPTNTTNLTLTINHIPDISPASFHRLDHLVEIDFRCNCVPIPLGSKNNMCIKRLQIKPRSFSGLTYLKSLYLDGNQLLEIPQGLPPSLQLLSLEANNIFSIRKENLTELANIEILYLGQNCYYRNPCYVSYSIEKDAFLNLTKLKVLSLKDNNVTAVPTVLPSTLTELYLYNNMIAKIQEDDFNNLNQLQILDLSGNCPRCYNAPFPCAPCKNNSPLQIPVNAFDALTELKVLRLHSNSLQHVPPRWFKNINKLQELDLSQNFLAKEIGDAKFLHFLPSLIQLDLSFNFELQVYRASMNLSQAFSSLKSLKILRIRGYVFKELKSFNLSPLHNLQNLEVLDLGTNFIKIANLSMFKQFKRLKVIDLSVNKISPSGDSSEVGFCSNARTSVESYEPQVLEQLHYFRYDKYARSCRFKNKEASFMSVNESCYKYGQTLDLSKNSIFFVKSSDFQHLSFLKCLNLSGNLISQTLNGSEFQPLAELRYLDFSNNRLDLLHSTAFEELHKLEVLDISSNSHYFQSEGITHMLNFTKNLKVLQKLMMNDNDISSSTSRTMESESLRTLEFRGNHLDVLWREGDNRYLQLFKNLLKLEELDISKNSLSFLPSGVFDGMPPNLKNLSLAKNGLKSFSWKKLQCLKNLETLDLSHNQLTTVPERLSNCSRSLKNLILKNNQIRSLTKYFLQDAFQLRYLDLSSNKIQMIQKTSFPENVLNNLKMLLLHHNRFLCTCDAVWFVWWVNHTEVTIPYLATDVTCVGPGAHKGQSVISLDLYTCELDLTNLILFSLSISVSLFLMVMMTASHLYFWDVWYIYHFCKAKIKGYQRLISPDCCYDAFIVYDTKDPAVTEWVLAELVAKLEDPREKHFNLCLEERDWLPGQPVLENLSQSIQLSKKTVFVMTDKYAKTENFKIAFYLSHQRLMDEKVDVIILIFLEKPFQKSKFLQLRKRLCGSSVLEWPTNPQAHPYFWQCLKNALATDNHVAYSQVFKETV
Nature of the experiment: HEK-Blue human TLR7 cell SEAP reporter assay (NF-κB activation). The conditions noted are these: HEK-Blue human TLR7 cells, stimulation for 20 hours, Quanti Blue read at 640 nm.
Source text: as §5
(Reporter assays use an easily measured gene product as a stand-in for the process of interest.)

Each structure is given as a SMILES string. pEC50: −log10 of the molar value.

Turning to `CCCC[C@@H](Nc1nc(N)nc2cccnc12)[C@H](C)O` [Compound 86], the AC50 was found to be 2.4 µM in experiment [1], 2.9 µM in experiment [2] and 37.4 µM in experiment [3].
For `CCCN(CCC)C(=O)C1=Cc2ccc(-c3cccnc3)cc2N=C(N)C1` [VTX-133, reference compound], the figures for the pEC50 in experiment [4] and in experiment [5] were 7.11 and 5.73, respectively.
In the same order, the values of `CCCN(CCC)C(=O)C1=Cc2ccc(-c3cncnc3)cc2N=C(N)C1` [VTX-135, reference compound] are 7.41 and 5.44.

As usually defined, the AC50 is the concentration at which the activity in the assay is half-maximal. By pEC50 is commonly meant the EC50 on a negative log10 scale, so that one unit is a factor of ten. Low values mean a large EC50, high ones a small EC50.
